Assay results from paper PMC4526366 (PLoS ONE, 2015).
“Also recorded” adds a separate entry of the source. Where two headings read alike, the source gives them in different places. Where a SMILES comes first, the peptide text is derived from it. Where no end group is shown, it is not given here.

How the values were obtained:
thrombin (α-thrombin) [1] = molecular target: T1, thrombin (α-thrombin) (Homo sapiens, UniProt P00734); experiment: Screening for inhibition of serine proteases (fluorogenic substrate hydrolysis); format: biochemical; conditions: 1 μM peptide, pre-incubated 30°C 10 min, mean of three independent experiments in triplicate
T1 construct: purchased Sigma; Haematologic Technologies; or prepared in house from prothrombin (Enzyme Research Laboratories) with Oxyuranus scutellatus venom
Description: Linear fits of fluorescence increases as a function of time were verified with the Magellan—Data Analysis Software (Tecan group Ltd), and the slope in arbitrary fluorescence units per second (r^2 > 0.95) was used to calculate hydrolysis rate. Each experiment was performed in triplicate and the mean and standard error of three independent experiments were calculated. The substrate hydrolysis rate in the absence of the peptide was considered as 100% and compared with the remaining enzymatic activity in the presence of the peptide.

α-thrombin [2] = molecular target: T2, α-thrombin (Homo sapiens, UniProt P00734); experiment: Inhibition of thrombin-mediated hydrolysis of S2238; format: biochemical
T2 construct: purchased Sigma; Haematologic Technologies; or prepared in house from prothrombin (Enzyme Research Laboratories) with Oxyuranus scutellatus venom
Description: […] Reactions were started by addition of thrombin (0.5 nM) and absorbance was monitored for 10 minutes at 405 nm in a microplate reader. The data were fit to competitive or non-competitive models of inhibition using GraphPad Prism 5. In both cases, nonlinear regression was used to fit to the hyperbolic equation: v=Vmaxapp [S]/(Kmapp+[S]) In the case of competitive inhibition Vmaxapp = Vmax and in the case of noncompetitive inhibition Kmapp = Km.
In the case of competitive inhibition the inhibition constant (Ki) was obtained from fitting of: Kmapp = Km(1+[I]/Ki) .
For noncompetitive inhibition Ki was determined by fitting of: Vmaxapp = Vmax/(1+[I]/Ki)
The experiments were repeated three times.

α-thrombin [3] = molecular target: T2, α-thrombin; experiment: Surface plasmon resonance, thrombin binding to immobilized peptide; conditions: 150 mM NaCl
Description: Surface plasmon resonance (SPR) was used to measure interaction between immobilized peptides and thrombin using a Biacore T100 instrument. Approximately 500 resonance units of hyalomin-1 biotinylated at Lys1 or its N-terminal cleavage product (01–41) were bound to a neutravidin surface that had been immobilized on C5 chips using the amine coupling procedure. Kinetic measurements were carried out by injecting different concentrations of thrombin in 10 mM HEPES pH 7.4, 150 mM NaCl, 0.05%Tween-20. The chip surface was regenerated using injections of 10 mM glycine pH 2.5. Data were analyzed by global fitting of a 1:1 single state model using the Biacore T100 evaluation software. Binding of γ-thrombin with the same surface was also investigated under similar conditions.

thrombin [4] = molecular target: T3, thrombin (Homo sapiens, UniProt P00734); conditions: 2 h, 37°C, TBS pH 7.4, MALDI MS; for cleavage by thrombin (peptide remaining / digestion): 25 μM peptide, 1 μM thrombin (25:1)
Description: Reactions were stopped by freezing at –20°C until analysis. Samples (2 μl) were desalted in C-8 micro-columns (Ziptip-Milipore), washing 3 times with 0.1% TFA and eluting with 60% acetonitrile in water. Washes were diluted with 4 μl 50% acetonitrile and spotted (0.5–1 μl) on MALDI plates followed by addition of matrix solution. After drying, they were injected into the MS instrument and analyzed in reflectron (peptide plus thrombin) or linear (peptide alone) mode.

BALB/c mice = conditions: 2.5 mg/kg intravenous, tail transection after 15 min, hemoglobin by absorbance at 540
Description: Briefly, BALB/c mice were anesthetized (xylazine and ketamine) and the common carotid artery was isolated for measuring blood flow continuously using a 0.5-V Doppler flow probe coupled to a TS420 flow meter (Thransonic Systems, Ithaca, NY) [21]. Before induction of thrombosis the tail vein was injected with 50 μl of hyalomin-1 (1 and 2.5 mg/kg) or vehicle (PBS). Thrombi were formed by placing a piece of filter paper (1 x 2 mm) saturated with 7.5% FeCl3 on the adventitial surface or the artery for 3 minutes. After washing with normal saline, blood flow was continuously monitored for 60 minutes or until the blood flow dropped to zero for at least 10 seconds. Tail bleeding was performed on anesthetized mice injected intravenously with peptide (2.5 mg/kg) or vehicle alone (PBS) in 100 μl. After 15 minutes, the distal 2 mm segment was removed and the tail was immersed in 40 ml distilled 37°C warmed water. Absorbance at 540 was measured to estimate hemoglobin content.

thrombin [5] = molecular target: T3, thrombin; experiment: biochemical
Description: Inhibition of thrombin-mediated activation of FXI in the presence of long-chain (P700) polyphosphate (polyP) was done in according to Choi et al. [17] by adding 2 μM of polyP to buffer (20 mM Tris HCl, pH 7.4, 150 mM NaCl and 0.1% BSA) followed by different concentrations of peptide (23.4 nM to 600 nM). α-Thrombin (5 nM) and 60 nM of FXI were then added and samples were incubated at 37°C for 35 minutes. Reactions were stopped with 50 nM of the thrombin inhibitor anophelin [18, 19] and polybrene to dissociate complexes with polyP. S2236 (Chromogenix Inc.) was added to a concentration of 250 μM and product formed was read as absorbance at 405 nm for 5–10 minutes in a microplate reader. Results were expressed as the percentage of the maximum activity (mAU/min) in the absence of peptide. Experiments were performed in duplicate.

thrombin (α-thrombin) [6] = experiment: thrombin at 1 μM in 1X TBS (10 X dilution of 10 X TBS pH 7.4); conditions: 37°C, up to 2 hours
thrombin [7] = conditions: cited from earlier work
factor Xa = conditions: cited from earlier work
[8] = 150 mM NaCl, 0.5 nM thrombin, 37°C, pH 7.4, three experiments, read-out: inhibition constant (Ki), competitive model

Molecule: KPNLQSRSDDGVDESDYDTYPDDNNDDSGERNGGSEPAKPRLPVPGSGRDSERIPVPVD [hyalomin-1]
- loss of thrombin control activity in the presence of the peptide (thrombin (α-thrombin) [1]): 72%
- Ki (α-thrombin [2]; 50 mM salt, 0.5 nM thrombin, 37°C, read-out: inhibition constant (Ki), competitive model): 0.4 ± 0.1 nM
- Ki (α-thrombin [2]; [8]): 11.9 ± 1.8 nM
- potency of the inhibitor over incubation time with thrombin (α-thrombin [2]; 800:1 peptide to enzyme (400 nM peptide, 0.5 nM thrombin), 37°C, six hour incubation, 50 μM S2238): diminished in a time-dependent manner
- Kd (α-thrombin [3]; SPR, immobilized biotinylated peptide, read-out: calculated dissociation equilibrium constant (KD)): 19 nM
- kon (α-thrombin [3]; peptide biotinylated at N-terminal lysine on neutravidin surface, pH 7.4, 1:1 model, read-out: association rate constant (ka)): 1e+06 M⁻¹ s⁻¹
- koff (α-thrombin [3]; peptide biotinylated at N-terminal lysine on neutravidin surface, pH 7.4, 1:1 model, read-out: dissociation rate constant (kd)): 0.02 s⁻¹
- cleavage by thrombin (peptide remaining / digestion) (thrombin [4]): No full-length peptide
- tail bleeding (BALB/c mice): significant bleeding
- IC50 (thrombin [5]): ~25 nM

Molecule: EPAKPRLPVPGSGRDSERIPVPVD
- cleaved bond (thrombin (α-thrombin) [6]): Arg41-Leu42, two hours

Molecule: KPNLQSRSDDGVDESDYDTYPDDNNDDSGERNGGSEPAKPRLPVPGSGRDSERIPVPVD
- cleaved bond (thrombin (α-thrombin) [6]): Arg41-Leu42, two hours

Molecule: DESDYDTYPDDNNDDSGERNGGSEPAKPRLPV [hyalomin (13–44) sulfated]
- cleaved bond (thrombin (α-thrombin) [6]): Arg41-Leu42

Molecule: DESDYDTYPDDNNDDSGERNGGSEPAKPRLPV [hyalomin-1 (13–44)]
- cleaved bond (thrombin (α-thrombin) [6]): Arg41-Leu42, 2 hr

Molecule: CC[C@H](C)[C@H](NC(=O)[C@H](CCCNC(=N)N)NC(=O)[C@H](CCC(=O)O)NC(=O)[C@H](CO)NC(=O)[C@H](CC(=O)O)NC(=O)[C@H](CCCNC(=N)N)NC(=O)CNC(=O)[C@H](CO)NC(=O)CNC(=O)[C@@H]1CCCN1C(=O)[C@@H](NC(=O)[C@@H]1CCCN1C(=O)[C@H](CC(C)C)NC(=O)[C@H](CCCNC(=N)N)NC(=O)[C@@H]1CCCN1C(=O)[C@H](CCCCN)NC(=O)[C@H](C)NC(=O)[C@@H]1CCCN1C(=O)[C@@H](N)CCC(=O)O)C(C)C)C(=O)N1CCC[C@H]1C(=O)N[C@H](C(=O)N1CCC[C@H]1C(=O)N[C@H](C(=O)N[C@@H](CC(=O)O)C(=O)O)C(C)C)C(C)C [36–59] (H-EPAKPRLPVPGSGRDSERIPVPVD-OH)
- Ki (α-thrombin [2]; [8]): 100 ± 2 nM
- Ki (α-thrombin [2]; salt concentration 50 mM, read-out: Ki, competitive model): 180 ± 30 nM
- cleavage in thrombin-free control (thrombin [4]; 25 μM peptide without thrombin): no cleavage
- cleavage by thrombin (peptide remaining / digestion) (thrombin [4]): complete digestion

Molecule: YPERDSAKDGNQEKERALLVKVQERYQGNQGDYDEYDQDETTPPPDPTAQTARPRLRQNQD
- cleaved bond (thrombin [7]): cleaved upstream of this site at Lys21
- cleaved bond (factor Xa): cleaved by factor Xa at Arg16; also recorded: cleaved by factor Xa at Arg25

Molecule: YPERDSAKEGNQEQERALHVKVQKRTDGDADYDEYEEDGTTPTPDPTAPTAKPRLRGNKP
- cleaved bond (thrombin [7]): Arg54-Leu55; also recorded: cleaved upstream of this site at Lys21
- cleaved bond (factor Xa): cleaved by factor Xa at Arg25; also recorded: cleaved by factor Xa at Arg54; also recorded: cleaved by factor Xa at Arg16

Molecule: CC[C@H](C)[C@H](NC(=O)[C@H](CCCNC(=N)N)NC(=O)[C@H](CCC(=O)O)NC(=O)[C@H](CO)NC(=O)[C@H](CC(=O)O)NC(=O)[C@H](CCCNC(=N)N)NC(=O)CNC(=O)[C@H](CO)NC(=O)CNC(=O)[C@@H]1CCCN1C(=O)[C@@H](NC(=O)[C@@H]1CCCN1C(=O)[C@@H](N)CC(C)C)C(C)C)C(=O)N1CCC[C@H]1C(=O)N[C@H](C(=O)N1CCC[C@H]1C(=O)N[C@H](C(=O)N[C@@H](CC(=O)O)C(=O)O)C(C)C)C(C)C [42–59] (H-LPVPGSGRDSERIPVPVD-OH)
- Ki (α-thrombin [2]; ionic strength 150 mM, read-out: Ki, non-competitive model): 1700 ± 100 nM
- Ki (α-thrombin [2]; salt concentration 50 mM, read-out: Ki, non-competitive model): 1800 ± 100 nM
